Test results published in patent US20240044922A1, “DEVICE AND METHODS FOR MEASURING PLATELET-FIBRIN CLOT CONTRACTION KINETICS” (University of Kentucky Research Foundation, priority 2022, published 2024).

Tested on: washed mouse platelets
Test: Clot contraction assay, time-lapse imaging of washed mouse platelets with thrombin, fibrinogen and CaCl2
Assay type: cell-based
Conditions: for AUC / Average Velocity / Clot Contraction Extent / Lag time / PHASE 1 % Contraction / PHASE 1 Rate 1 / PHASE 1 t1 / PHASE 2 % Contraction / PHASE 2 Rate 2 / PHASE 2 t2 / PHASE 3 % Contraction / PHASE 3 Rate 3: CaCl2 0.5 mM
[1] = fibrinogen 62 μg/mL, thrombin 20 mU/mL
[2] = fibrinogen 125 μg/mL, thrombin 20 mU/mL
[3] = fibrinogen 250 μg/mL, thrombin 20 mU/mL
[4] = fibrinogen 500 μg/mL, thrombin 20 mU/mL
[5] = fibrinogen 1000 μg/mL, thrombin 20 mU/mL
[6] = increased thrombin concentration, 10-200 mU/mL
[7] = thrombin 10 mU/mL, fibrinogen 250 μg/mL
[8] = thrombin 20 mU/mL, fibrinogen 250 μg/mL
[9] = thrombin 30 mU/mL, fibrinogen 250 μg/mL
[10] = thrombin 50 mU/mL, fibrinogen 250 μg/mL
[11] = thrombin 100 mU/mL, fibrinogen 250 μg/mL

Which AUC [1] does the source give for Fibrinogen here?
Its AUC is 6.66 AU.

What about the “Average Velocity” value [1] of the same substance?
The value was 0.53 %/min.

What about the “Clot Contraction Extent” value [1] of the same substance?
The value was 53.50%.

What about the Lag time [1] of the same substance?
The Lag time was 46.67 min.

And the “PHASE 1 % Contraction” value [1]?
The value was 2.11%.

And the “PHASE 1 Rate 1” value [1]?
Its value is 1.50 ×10^−3 %/min.

What about the “PHASE 1 t1” value [1] of the same substance?
Its value is 13.00 min.

What about the “PHASE 2 % Contraction” value [1] of the same substance?
The value was 24.32%.

What about the “PHASE 2 Rate 2” value [1] of the same substance?
The value was 1.19 %/min.

And the “PHASE 2 t2” value [1]?
Its value is 28.00 min.

And the “PHASE 3 % Contraction” value [1]?
Its value is 43.44%.

What about the “PHASE 3 Rate 3” value [1] of the same substance?
The value was 2.90 ×10^−2 %/min.

And the AUC [2]?
The AUC was 4.13 AU.

What about the “Average Velocity” value [2] of the same substance?
The value was 1.00 %/min.

And the “Clot Contraction Extent” value [2]?
The value was 98.07%.

What about the Lag time [2] of the same substance?
The Lag time was 26.40 min.

And the “PHASE 1 % Contraction” value [2]?
Its value is 2.72%.

What about the “PHASE 1 Rate 1” value [2] of the same substance?
Its value is 2.25 ×10^−3 %/min.

What about the “PHASE 1 t1” value [2] of the same substance?
The value was 10.75 min.

And the “PHASE 2 % Contraction” value [2]?
The value was 37.99%.

And the “PHASE 2 Rate 2” value [2]?
Its value is 1.66 %/min.

What about the “PHASE 2 t2” value [2] of the same substance?
Its value is 30.75 min.

And the “PHASE 3 % Contraction” value [2]?
Its value is 57.36%.

What about the “PHASE 3 Rate 3” value [2] of the same substance?
Its value is 5.90 ×10^−2 %/min.

And the AUC [3]?
Its AUC is 4.23 AU.

And the “Average Velocity” value [3]?
The value was 0.98 %/min.

What about the “Clot Contraction Extent” value [3] of the same substance?
Its value is 96.87%.

What about the Lag time [3] of the same substance?
Its Lag time is 21.67 min.

And the “PHASE 1 % Contraction” value [3]?
The value was 3.26%.

And the “PHASE 1 Rate 1” value [3]?
Its value is 2.18 ×10^−3 %/min.

What about the “PHASE 1 t1” value [3] of the same substance?
Its value is 10.40 min.

And the “PHASE 2 % Contraction” value [3]?
The value was 26.29%.

And the “PHASE 2 Rate 2” value [3]?
The value was 1.50 %/min.

And the “PHASE 2 t2” value [3]?
The value was 29.40 min.

What about the “PHASE 3 % Contraction” value [3] of the same substance?
Its value is 67.28%.

And the “PHASE 3 Rate 3” value [3]?
Its value is 4.96 ×10^−2 %/min.

What about the AUC [4] of the same substance?
Its AUC is 4.89 AU.

And the “Average Velocity” value [4]?
The value was 0.89 %/min.

And the “Clot Contraction Extent” value [4]?
The value was 88.42%.

What about the Lag time [4] of the same substance?
Its Lag time is 17.80 min.

What about the “PHASE 1 % Contraction” value [4] of the same substance?
Its value is 3.48%.

What about the “PHASE 1 Rate 1” value [4] of the same substance?
Its value is 2.78 ×10^−3 %/min.

And the “PHASE 1 t1” value [4]?
Its value is 9.40 min.

And the “PHASE 2 % Contraction” value [4]?
The value was 19.02%.

What about the “PHASE 2 Rate 2” value [4] of the same substance?
The value was 1.10 %/min.

What about the “PHASE 2 t2” value [4] of the same substance?
The value was 26.00 min.

What about the “PHASE 3 % Contraction” value [4] of the same substance?
Its value is 65.92%.

What about the “PHASE 3 Rate 3” value [4] of the same substance?
Its value is 3.32 ×10^−2 %/min.

And the Efficiency of contraction (fibrinogen 1,000 μg/mL)?
Its Efficiency of contraction is “too high for efficient contraction”.

And the AUC [5]?
Its AUC is 6.18 AU.

And the “Average Velocity” value [5]?
The value was 0.69 %/min.

And the “Clot Contraction Extent” value [5]?
Its value is 68.91%.

And the Lag time [5]?
The Lag time was 39.80 min.

What about the “PHASE 1 % Contraction” value [5] of the same substance?
Its value is 4.20%.

What about the “PHASE 1 Rate 1” value [5] of the same substance?
Its value is 3.03 ×10^−3 %/min.

And the “PHASE 1 t1” value [5]?
The value was 11.80 min.

And the “PHASE 2 % Contraction” value [5]?
Its value is 10.11%.

What about the “PHASE 2 Rate 2” value [5] of the same substance?
The value was 0.70 %/min.

And the “PHASE 2 t2” value [5]?
Its value is 25.40 min.

What about the “PHASE 3 % Contraction” value [5] of the same substance?
Its value is 54.53%.

What about the “PHASE 3 Rate 3” value [5] of the same substance?
The value was 1.92 ×10^−2 %/min.

And the “Fibrinogen concentrations with highest extent and average velocity of contraction” value (fibrinogen 62.5 to 1,000 μg/mL)?
The value was “highest at 125 and 250”.

Which results are given for Thrombin?
Effect on extent of clot contraction [6]: remained unchanged; Effect on lag time [6]: decreased; Increase of Phase 1 (initiation) rate (over the thrombin concentration range tested): ~5 fold; AUC [7]: 5.62 AU; Average Velocity [7]: 0.82 %/min; Clot Contraction Extent [7]: 80.19%; Lag time [7]: 28.33 min; PHASE 1 % Contraction [7]: 4.93%; PHASE 1 Rate 1 [7]: 4.27 ×10^−3 %/min; PHASE 1 t1 [7]: 13.33 min; PHASE 2 % Contraction [7]: 23.95%; PHASE 2 Rate 2 [7]: 1.02 %/min; PHASE 2 t2 [7]: 36.00 min; PHASE 3 % Contraction [7]: 51.32%; PHASE 3 Rate 3 [7]: 3.93 ×10^−2 %/min; AUC [8]: 4.90 AU; Average Velocity [8]: 0.90 %/min; Clot Contraction Extent [8]: 88.45%; Lag time [8]: 19.33 min; PHASE 1 % Contraction [8]: 4.66%; PHASE 1 Rate 1 [8]: 4.67 ×10^−3 %/min; PHASE 1 t1 [8]: 11.33 min; PHASE 2 % Contraction [8]: 31.74%; PHASE 2 Rate 2 [8]: 1.33 %/min; PHASE 2 t2 [8]: 36.33 min; PHASE 3 % Contraction [8]: 52.05%; PHASE 3 Rate 3 [8]: 3.63 ×10^−2 %/min; AUC [9]: 4.10 AU; Average Velocity [9]: 0.94 %/min; Clot Contraction Extent [9]: 92.41%; Lag time [9]: 15.33 min; PHASE 1 % Contraction [9]: 6.03%; PHASE 1 Rate 1 [9]: 6.67 ×10^−3 %/min; PHASE 1 t1 [9]: 8.67 min; PHASE 2 % Contraction [9]: 20.91%; PHASE 2 Rate 2 [9]: 1.67 %/min; PHASE 2 t2 [9]: 22.00 min; PHASE 3 % Contraction [9]: 65.45%; PHASE 3 Rate 3 [9]: 2.70 ×10^−2 %/min; AUC [10]: 3.69 AU; Average Velocity [10]: 0.94 %/min; Clot Contraction Extent [10]: 92.51%; Lag time [10]: 10.67 min; PHASE 1 % Contraction [10]: 6.96%; PHASE 1 Rate 1 [10]: 27.33 ×10^−3 %/min; PHASE 1 t1 [10]: 6.67 min; PHASE 2 % Contraction [10]: 16.04%; PHASE 2 Rate 2 [10]: 1.97 %/min; PHASE 2 t2 [10]: 18.00 min; PHASE 3 % Contraction [10]: 69.51%; PHASE 3 Rate 3 [10]: 3.10 ×10^−2 %/min; AUC [11]: 3.32 AU; Average Velocity [11]: 0.97 %/min; Clot Contraction Extent [11]: 94.93%; Lag time [11]: 9.00 min; PHASE 1 % Contraction [11]: 6.55%; PHASE 1 Rate 1 [11]: 21.33 ×10^−3 %/min; PHASE 1 t1 [11]: 5.00 min; PHASE 2 % Contraction [11]: 19.72%; PHASE 2 Rate 2 [11]: 2.02 %/min; PHASE 2 t2 [11]: 18.67 min; PHASE 3 % Contraction [11]: 68.67%; PHASE 3 Rate 3 [11]: 3.43 ×10^−2 %/min
